Laboratory results as given in patent US20250257071A9, “TRICYCLIC COMPOUND, METHOD FOR PREPARING SAME, AND USE THEREOF” (Sichuan Kelun-Biotech Biopharmaceutical Co., Ltd., priority 2021, published 2025).

Tests used:
human TLR7 = human TLR7 (Homo sapiens (Human), UniProt Q9NYK1); test: Agonistic activity of compounds on HEK-Blue hTLR7 cells (QUANTI-Blue reporter, OD620); type: cell-based; settings: for Emax (OD620): OD620 at maximum activation effect
Description: • 1. HEK-Blue hTLR7 cells (Invivogen) were cultured in DMEM medium (Hyclone) containing 10% FBS heat-inactivated fetal bovine serum (Corning). On the day of detection, the cell state was observed under a microscope, the cells were collected and resuspended, and the cell concentration was adjusted after counting, 50 μL per well, the total amount of cells was 2×10^4, and the cells were inoculated in a 96-well plate. • 2. After the cells adhered to the wall overnight, 50 μL of the test compound at different concentrations was added into the well plate, so that the final concentrations were 100 μM, 33.3 μM, 11.11 μM, 3.70 μM, 1.23 μM, 0.41 μM, 0.14 μM, 0.05 μM, 0 μM, and the final concentration of DMSO was 1%. The compound was incubated with the cells in a 37° C., 5% CO2 incubator for 20 h. • 3. After the incubation, observation under microscope was performed to determine the maximum signal well, the states of the cells with the highest and lowest concentrations of the compound, and whether the compound will crystalize at high concentration. 10 μL of cell culture supermatant was taken and transferred to a new 96-well transparent plate, 90 μL of QUANTI-Blue (Invivogen) detection reagent was added to each well, and incubated at 37° C. for 3 h, and OD620 was read with a multifunctional microplate reader (BMG LABTECH). • 4. EC50 was calculated by fitting with Graphpad Prism software log(agonist) vs. response—Variable slope, and Emax was the (D620 at which the activation effect of the test compound reached the maximum.

human TLR8 = human TLR8 (Homo sapiens (Human), UniProt Q9NR97); test: Agonistic activity of compounds on HEK-Blue hTLR8 cells (QUANTI-Blue reporter, OD620); type: cell-based; settings: for Emax (OD620): OD620 at maximum activation effect
Description: • 1. HEK-Blue hTLR8 cells (Invivogen) were cultured in DMEM medium (Hyclone) containing 10% FBS heat-inactivated fetal bovine serum (Corning). On the day of detection, the cell state was observed under a microscope, the cells were collected and resuspended, and the cell concentration was adjusted after counting, 50 μL per well, the total amount of cells was 2×10^4, and the cells were inoculated in a 96-well plate. • 2. After the cells adhered to the wall overnight, 50 μL of the test compound at different concentrations was added to the well plate, so that the final concentrations were 100 μM, 25 μM, 6.25 μM, 1.56 μM, 0.39 μM, 0.10 μM, 0.02 μM, 0.006 μM, 0 μM, or 100 μM, 33.3 μM, 11.11 μM, 3.70 μM, 1.23 μM, 0.41 μM, 0.14 μM, 0.05 μM, 0 μM, and the final concentration of DMSO was 1%. The compound was incubated with the cells in a 37° C., 5% CO2 incubator for 20 hours. • 3. After the incubation, observation was performed under microscope to determine the maximum signal well, the state of the cells with the highest and lowest concentrations of the compound, and whether the compound will crystalize at high concentration. 10 μL of cell culture supernatant was transferred to a new 96-well transparent plate, added with 90 μL of QUANTI-Blue (Invivogen) detection reagent to each well, incubated at 37° C. for 3 hours, and OD620 was read with a multifunctional microplate reader (BMG LABTECH). • 4. EC50 was calculated by fitting with Graphpad Prism software log(agonist) vs. Response—Variable slope, and Emax was the OD620 at which the activation effect of the test compound reached the maximum.

Sequence of human TLR7 (Q9NYK1 27-1049): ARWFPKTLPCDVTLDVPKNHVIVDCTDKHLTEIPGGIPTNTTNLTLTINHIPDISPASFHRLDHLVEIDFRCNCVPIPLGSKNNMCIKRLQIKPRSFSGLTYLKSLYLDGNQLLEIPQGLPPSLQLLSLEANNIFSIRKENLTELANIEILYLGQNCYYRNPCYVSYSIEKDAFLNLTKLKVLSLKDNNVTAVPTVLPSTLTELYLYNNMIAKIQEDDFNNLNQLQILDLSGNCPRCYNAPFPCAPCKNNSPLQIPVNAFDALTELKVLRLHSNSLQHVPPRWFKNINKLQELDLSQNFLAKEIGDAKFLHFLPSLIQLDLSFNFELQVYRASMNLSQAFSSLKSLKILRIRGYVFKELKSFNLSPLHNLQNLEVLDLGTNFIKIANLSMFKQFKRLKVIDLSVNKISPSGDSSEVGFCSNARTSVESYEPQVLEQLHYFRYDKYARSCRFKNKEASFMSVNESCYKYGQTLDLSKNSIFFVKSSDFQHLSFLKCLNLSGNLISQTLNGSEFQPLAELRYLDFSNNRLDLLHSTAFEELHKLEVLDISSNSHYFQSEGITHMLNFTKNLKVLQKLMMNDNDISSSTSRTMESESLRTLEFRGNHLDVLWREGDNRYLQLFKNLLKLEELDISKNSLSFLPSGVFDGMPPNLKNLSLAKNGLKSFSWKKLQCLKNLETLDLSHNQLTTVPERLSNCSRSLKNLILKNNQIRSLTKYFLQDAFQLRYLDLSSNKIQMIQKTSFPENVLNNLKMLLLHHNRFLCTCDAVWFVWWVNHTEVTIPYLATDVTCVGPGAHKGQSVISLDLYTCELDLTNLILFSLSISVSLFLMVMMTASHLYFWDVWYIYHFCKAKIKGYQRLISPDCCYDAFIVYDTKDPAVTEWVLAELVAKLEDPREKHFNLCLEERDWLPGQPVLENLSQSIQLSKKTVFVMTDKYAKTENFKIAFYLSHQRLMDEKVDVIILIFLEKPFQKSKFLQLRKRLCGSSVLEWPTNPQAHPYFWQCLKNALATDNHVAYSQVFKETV
Sequence of human TLR8 (Q9NR97 27-1041): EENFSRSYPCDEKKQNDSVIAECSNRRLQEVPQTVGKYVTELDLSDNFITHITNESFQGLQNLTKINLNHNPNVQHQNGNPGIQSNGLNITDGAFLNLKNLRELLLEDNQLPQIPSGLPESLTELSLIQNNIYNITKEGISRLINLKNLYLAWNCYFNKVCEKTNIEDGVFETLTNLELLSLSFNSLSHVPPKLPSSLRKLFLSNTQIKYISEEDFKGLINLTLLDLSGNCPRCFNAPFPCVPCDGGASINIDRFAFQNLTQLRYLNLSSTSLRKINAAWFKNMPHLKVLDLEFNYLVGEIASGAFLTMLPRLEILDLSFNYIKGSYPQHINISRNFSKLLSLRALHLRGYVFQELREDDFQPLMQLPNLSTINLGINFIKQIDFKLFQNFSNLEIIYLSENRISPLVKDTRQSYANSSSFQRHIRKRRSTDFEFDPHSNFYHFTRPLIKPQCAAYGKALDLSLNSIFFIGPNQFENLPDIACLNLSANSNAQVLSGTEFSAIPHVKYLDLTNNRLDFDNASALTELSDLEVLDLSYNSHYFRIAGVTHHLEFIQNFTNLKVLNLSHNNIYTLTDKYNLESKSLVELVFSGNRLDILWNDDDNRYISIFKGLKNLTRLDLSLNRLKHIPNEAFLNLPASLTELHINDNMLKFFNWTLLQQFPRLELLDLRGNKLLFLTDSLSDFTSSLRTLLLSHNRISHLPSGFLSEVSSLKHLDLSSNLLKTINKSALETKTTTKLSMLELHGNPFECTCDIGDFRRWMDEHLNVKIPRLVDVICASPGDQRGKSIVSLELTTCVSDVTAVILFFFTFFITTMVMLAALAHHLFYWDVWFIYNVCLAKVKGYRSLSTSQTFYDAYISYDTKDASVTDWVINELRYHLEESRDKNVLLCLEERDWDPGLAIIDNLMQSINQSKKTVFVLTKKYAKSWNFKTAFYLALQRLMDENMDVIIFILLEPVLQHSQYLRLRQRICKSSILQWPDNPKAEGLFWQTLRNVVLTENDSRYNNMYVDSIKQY

Row | SMILES | activation effect on human TLR7 (in words) (human TLR7) | Emax (OD620) (human TLR7) | activation effect on human TLR8 (in words) (human TLR8) | Emax (OD620) (human TLR8)
1 | CCCCc1nc2c(N)nc3cc(C)sc3c2n1CCCCN [Compound 1, 1-(4-aminobutyl)-2-butyl-7-methyl-1H-imidazo[4,5-d]thieno[3,2-b]pyridine-4-amine] | strong activation effect | 1.36 OD620 | strong activation effect | 1.43 OD620
2 | CCCCc1nc2c(N)nc3ccsc3c2n1CCCCN [Compound 2, 1-(4-aminobutyl)-2-butyl-1H-imidazo[4,5-d]thieno[3,2-b]pyridine-4-amine] | strong activation effect | 1.36 OD620 | strong activation effect | 1.37 OD620
3 | CCCCc1nc2c(N)nc3cc(C)sc3c2n1CC1CCNCC1 [Compound 3, 2-butyl-7-methyl-1-(piperidin-4-ylmethyl)-1H-imidazo[4,5-d]thieno[3,2-b]pyridine-4-amine] | strong activation effect | 1.43 OD620 | strong activation effect | 1.86 OD620
4 | COCCc1nc2c(N)nc3ccsc3c2n1CCCCN [Compound 4, 1-(4-aminobutyl)-2-(2-methoxyethyl)-1H-imidazo[4,5-d]thieno[3,2-b]pyridine-4-amine] | strong activation effect | 1.74 OD620 |  | 
5 | CCOCc1nc2c(N)nc3ccsc3c2n1CCCCN [Compound 5, 1-(4-aminobutyl)-2-(2-ethoxymethyl)-1H-imidazo[4,5-d]thieno[3,2-b]pyridine-4-amine] | strong activation effect | 1.46 OD620 |  | 
6 | CCCCc1nc2c(N)nc3cc(C4CCN(C)CC4)sc3c2[nH]1 [Compound 6, 2-butyl-7-(1-methylpiperidin-4-yl)-1H-imidazo[4,5-d]thieno[3,2-b]pyridine-4-amine] | strong activation effect | 1.08 OD620 | strong activation effect | 1.11 OD620
7 | CCCCc1nc2c(N)nc3cc(C4=CCN(C)CC4)sc3c2[nH]1 [Compound 8, 2-butyl-7-(1-methyl-1,2,3,6-tetrahydropyridin-4-yl)-1H-imidazo[4,5-d]thieno[3,2-b]pyridine-4-amine] | strong activation effect | 0.56 OD620 |  | 
8 | CCCCc1nc2c(N)nc3cc(C)sc3c2n1CC1CCN(CCOCCOCCN)CC1 [Compound 15, 1-((1-(2-(2-(2-aminoethoxy)ethoxy)ethyl)piperidin-4-yl)methyl)-2-butyl-7-methyl-1H-imidazo[4,5-d]thieno[3,2-b]pyridine-4-amine] | strong activation effect | 2.40 OD620 |  | 
9 | CCCCc1nc2c(N)nc3cc(C)sc3c2n1CC1CCN(CCOCCOCCOCCOCCOCCOCCOC)CC1 [Compound 16, 1-((1-(2,5,8,11,14,17,20-heptaoxadocosan-22-yl)piperidin-4-yl)methyl)-2-butyl-7-methyl-1H-imidazo[4,5-d]thieno[3,2-b]pyridine-4-amine] | strong activation effect | 2.18 OD620 |  | 
10 | CCCCc1nc2c(N)nc3cc(C)sc3c2n1CC1CCN(C(=O)CCOCCOCCN)CC1 [Compound 17, 1-(4-((4-amino-2-butyl-7-methyl-1H-imidazo[4,5-d]thieno[3,2-b]pyridin-1-yl)methyl)piperidin-1-yl)-3-(2-(2-aminoethoxy)ethoxy)propan-1-one] | strong activation effect | 2.23 OD620 |  | 
11 | CCCCc1nc2c(N)nc3ccsc3c2n1CC1CCNCC1 [Compound 25, 2-butyl-1-(piperidin-4-ylmethyl)-1H-imidazo[4,5-d]thieno[3,2-b]pyridine-4-amine] | strong activation effect | 2.08 OD620 |  | 
12 | CCCCc1nc2c(N)nc3cc(C)sc3c2n1CC1CCOCC1 [Compound 26, 2-butyl-7-methyl-1-((tetrahydro-2H-pyran-4-yl)methyl)-1H-imidazo[4,5-d]thieno[3,2-b]pyridine-4-amine] | strong activation effect | 1.78 OD620 |  | 
13 | CCCCc1nc2c(N)nc3ccsc3c2n1CC1CCN(C)CC1 [Compound 27, 2-butyl-1-[(1-methylhexahydropyridin-4-yl)methyl]thieno[3,2-b]imidazo[4,5-d]pyridine-4-amine] | strong activation effect | 1.59 OD620 | strong activation effect | 0.84 OD620
14 | CCCCc1nc2c(N)nc3cc(C)sc3c2n1CC1CCN(C)CC1 [Compound 28, 2-butyl-7-methyl-1-((1-methylpiperidin-4-yl)methyl)-1H-imidazo[4,5-d]thieno[3,2-b]pyridine-4-amine] | strong activation effect | 1.39 OD620 |  | 
15 | CCCCc1nc2c(N)nc3cc(C4CCN(C)CC4)sc3c2n1C [Compound 32, 2-butyl-1-methyl-7-(1-methylpiperidin-4-yl)-1H-imidazo[4,5-d]thieno[3,2-b]pyridine-4-amine] | strong activation effect | 0.91 OD620 |  | 
16 | CCCCc1nc2c(N)nc3cc(C4CCN(C)CC4)sc3c2n1CC1CCOCC1 [Compound 34, 2-butyl-7-(1-methylpiperidin-4-yl)-1-((tetrahydro-2H-pyran-4-yl)methyl)-1H-imidazo[4,5-d]thieno[3,2-b]pyridine-4-amine] | strong activation effect | 1.21 OD620 |  | 
17 | CCCCc1nc2c(N)nc3cc(C4CCN(C)CC4)sc3c2n1CC1CCN(C)CC1 [Compound 38, 2-butyl-7-(1-methylpiperidin-4-yl)-1-((1-methylpiperidin-4-yl)methyl)-1H-imidazo[4,5-d]thieno[3,2-b]pyridine-4-amine] | strong activation effect | 0.49 OD620 |  | 
18 | CCCCc1nc2c(N)nc3cc(C4CCOCC4)sc3c2n1CC1CCN(C)CC1 [Compound 40, 2-butyl-1-((1-methylpiperidin-4-yl)methyl)-7-(tetrahydro-2H-pyran-4-yl)-1H-imidazo[4,5-d]thieno[3,2-b]pyridine-4-amine] | strong activation effect | 1.83 OD620 |  | 
19 | CCCCc1nc2c(N)nc3cc(C4CCNCC4)sc3c2n1CC1CCN(CCOC)CC1 [Compound 41, 2-butyl-7-(hexahydropyridin-4-yl)-1-{[1-(2-methoxyethyl)hexahydropyridin-4-yl]methyl}thieno[3,2-b]imidazo[4,5-d]pyridine-4-amine] | strong activation effect | 0.84 OD620 |  | 
20 | CCCCc1nc2c(N)nc3cc(C4CCN(C)CC4)sc3c2n1CC1CCN(CCOC)CC1 [Compound 42, 2-butyl-1-{[1-(2-methoxyethyl)hexahydropyridin-4-yl]methyl}-7-(1-methylhexahydropyridin-4-yl)thieno[3,2-b]imidazo[4,5-d]pyridine-4-amine] | strong activation effect | 0.65 OD620 |  | 
21 | COCCc1nc2c(N)nc3ccsc3c2n1CC1CCNCC1 [Compound 55, 1-(hexahydropyridin-4-ylmethyl)-2-(2-methoxyethyl) thieno[3,2-b]imidazo[4,5-d]pyridine-4-amine] | strong activation effect | 1.44 OD620 |  | 
22 | COCCc1nc2c(N)nc3ccsc3c2n1CC1CCN(C)CC1 [Compound 56, 2-(2-methoxyethyl)-1-[(1-methylhexahydropyridin-4-yl)methyl]thieno[3,2-b]imidazo[4,5-d]pyridine-4-amine] | strong activation effect | 1.41 OD620 |  | 
